This is an account of results in ChEMBL document CHEMBL4392888, “Isolation of Sesquiterpene-Amino Acid Conjugates, Onopornoids A-D, and a Flavonoid Glucoside from Onopordum alexandrinum” (J Nat Prod, 2019).

For one test, the system named is Bacteria. The test is described as follows: Antimicrobial activity against bacteria. Format: functional, organism-based.
In a further test the target is T1, Tyrosinase (Homo sapiens, UniProt P14679).
T1 sequence (P14679 whole entry): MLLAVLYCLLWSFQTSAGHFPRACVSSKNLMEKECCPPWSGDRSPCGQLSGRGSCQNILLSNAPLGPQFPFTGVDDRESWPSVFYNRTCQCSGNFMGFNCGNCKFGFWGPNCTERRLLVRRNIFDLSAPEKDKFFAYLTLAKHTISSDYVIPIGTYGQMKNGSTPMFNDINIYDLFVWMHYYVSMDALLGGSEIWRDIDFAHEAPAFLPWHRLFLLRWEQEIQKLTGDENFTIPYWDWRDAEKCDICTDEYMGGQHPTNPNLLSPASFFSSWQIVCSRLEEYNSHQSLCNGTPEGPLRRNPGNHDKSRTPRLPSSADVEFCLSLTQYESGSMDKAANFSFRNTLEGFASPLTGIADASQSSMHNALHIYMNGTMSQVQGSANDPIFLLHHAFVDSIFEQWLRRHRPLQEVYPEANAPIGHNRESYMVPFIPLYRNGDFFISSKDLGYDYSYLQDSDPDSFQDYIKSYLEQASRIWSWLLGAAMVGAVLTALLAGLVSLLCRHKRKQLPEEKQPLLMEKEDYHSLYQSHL
The test is described as follows: Inhibition of tyrosinase (unknown origin).

The next test relates to Leishmania. The test is described as follows: Antimicrobial activity against Leishmania. Format: functional, organism-based.
The nature of test [1]: Antioxidant activity assessed as DPPH radical scavenging activity incubated for 30 mins by UV-spectrophotometric method. The class given is functional. (In general: The DPPH test is a chemical assay of radical scavenging.)

pIC50: −log10 of the molar value.

One may read the pIC50 as −log10 of the IC50, conventionally taken in molar units. On to `COC(=O)[C@H]1O[C@@H](Oc2cc(O)c3c(=O)cc(-c4ccc(O)cc4)oc3c2)[C@H](O)[C@@H](O)[C@@H]1O`, for which the pIC50 in the test on Bacteria, against Tyrosinase and in the test on Leishmania was under 4.30 each time.
Turning to `O=c1cc(-c2ccc(O)cc2)oc2cc(O[C@@H]3O[C@H](CO)[C@@H](O)[C@H](O)[C@H]3O)cc(O)c12` [APIGETRIN], the pIC50 in the test on Bacteria, against Tyrosinase and in the test on Leishmania was under 4.30 throughout.
Turning to `C=C(CO)C(=O)O[C@H]1C/C(C)=C/CC/C(CO)=C/[C@H]2OC(=O)[C@@H](CN3CCC[C@H]3C(=O)O)[C@H]12`, the pIC50 with Bacteria, on Tyrosinase and in the test with Leishmania was under 4.30 in each case.
As to `O=c1c(O[C@@H]2O[C@H](CO)[C@@H](O)[C@H](O)[C@H]2O)c(-c2ccc(O)c(O)c2)oc2cc(O)cc(O)c12` [ISOQUERCETIN], the pIC50 in the test with Bacteria is under 4.30; in test [1], 4.12; against Tyrosinase it was under 4.30; in the test on Leishmania, under 4.30.
For `C=C[C@]1(C)C[C@H](OC(=O)[C@@H](C)CO)[C@@H]2[C@H](OC(=O)[C@H]2CN2CCC[C@H]2C(=O)O)[C@H]1C(=C)CO`, the pIC50 in the test on Bacteria, on Tyrosinase and in the test with Leishmania was under 4.30 in each case.
On to `COc1ccc(-c2cc(=O)c3c(O)cc(O[C@@H]4O[C@H](CO[C@@H]5O[C@@H](C)[C@H](O)[C@@H](O)[C@H]5O)[C@@H](O)[C@H](O)[C@H]4O)cc3o2)cc1` [ACACIIN], for which the pIC50 in the test on Bacteria, against Tyrosinase and with Leishmania was under 4.30 in each case.
As for `C=C[C@]1(C)C[C@H](OC(=O)C(=C)CO)[C@@H]2[C@H](OC(=O)[C@H]2CN2CCC[C@H]2C(=O)O)[C@H]1C(=C)CO`, the pIC50 in the test with Bacteria, against Tyrosinase and in the test on Leishmania was under 4.30 each time.
Consider `C[C@@H]1O[C@@H](Oc2cc(O)c3c(=O)cc(-c4ccc(O)cc4)oc3c2)[C@H](O)[C@H](O)[C@H]1O`, for which the pIC50 in the test with Bacteria, against Tyrosinase and in the test with Leishmania was under 4.30 throughout.
As for `COC(=O)[C@H]1O[C@@H](Oc2cc(O)c3c(=O)cc(-c4ccc(OC)cc4)oc3c2)[C@H](O)[C@@H](O)[C@@H]1O`, the pIC50 in the test on Bacteria, against Tyrosinase and in the test on Leishmania was under 4.30 throughout.
For `O=C(/C=C/c1ccc(O)c(O)c1)O[C@H]1[C@H](O)[C@@H](O)[C@H](Oc2cc(O)c3c(=O)cc(-c4ccc(O)c(O)c4)oc3c2)O[C@@H]1CO`, the pIC50 was under 4.30 in the test with Bacteria, 4.16 in test [1], under 4.30 at Tyrosinase and under 4.30 with Leishmania.
`C[C@@H]1O[C@@H](OC[C@H]2O[C@@H](Oc3cc(O)c4c(=O)cc(-c5ccc(O)cc5)oc4c3)[C@H](O)[C@@H](O)[C@@H]2O)[C@H](O)[C@H](O)[C@H]1O` [ISORHOIFOLIN]: the pIC50 in the test with Bacteria, against Tyrosinase and with Leishmania was under 4.30 in each case.
Regarding `COc1ccc(C[C@H]2COC(=O)[C@@H]2Cc2ccc(O[C@@H]3O[C@H](CO)[C@@H](O)[C@H](O)[C@H]3O)c(OC)c2)cc1OC` [ARCTIIN], the pIC50 in the test on Bacteria, against Tyrosinase and with Leishmania was under 4.30 in each case.
For the molecule `C=C[C@]1(C)C[C@H](OC(=O)/C(=C/C)CO)[C@@H]2[C@H](OC(=O)[C@H]2CN2CCC[C@H]2C(=O)O)[C@H]1C(=C)CO`, the pIC50 in the test with Bacteria, on Tyrosinase and in the test with Leishmania was under 4.30 in each case.
In the case of `COc1ccc(-c2cc(=O)c3c(O)cc(O[C@@H]4O[C@H](CO)[C@@H](O)[C@H](O)[C@H]4O)cc3o2)cc1` [TILIANINE], the pIC50 in the test on Bacteria, at Tyrosinase and in the test on Leishmania was under 4.30 throughout.
